Laboratory results: patent US7988972B2, “Immunoreactive peptides from Epstein-Barr virus” (Ortho-Clinical Diagnostics, Inc., priority 1993, dated 2011)

Columns and labels:
[1] = test system: anti-EA antibodies in human sera; assay: ELISA, serological reactivity of human sera with p17 synthetic peptides; type: binding; details: for share of anti-EA-positive sera that reacted: 87 anti-EA antibody-positive sera (titer>160), 2 μg peptide per well; for No. Positive/No. Tested / No. Positive/No. Tested (%): sera 1:10
Experimental: (§1) ELISA. The ELISA for measuring specific antibodies to p17, p50 or to the synthetic peptides was performed as previously described in detail (Luka et al., J. Immunol. Methods, 67:145-156, 1984). Aliquots of different antigen concentrations were diluted in 0.5M Na2CO3 buffer, pH 9.5, added to wells in polystyrene microtiter plates (Linbro) and the plates incubated overnight at 4° C. Following this incubation period, the plates were washed 5× with Tris-HCl, pH 7.4, containing 0.05% Tween 20, 50 mM NaCl and 100 mg per liter albumin (Sigma) and dried for 20 minutes at room temperature. The plates were screened with different anti-EA-R or EA-D antibody positive human sera and the monoclonal antibody to p17 or p50 to identify the optimal concentration of antigen to be used in the serological studies. Alkaline-phosphatase-labelled goat anti-human IgG (Sigma) or goat anti-mouse IgG (Sigma) was used as the indicator system.
(§2) For the testing of human sera for antibodies to native p17, p50 or to the synthetic peptides, sera were diluted 1:10 in ELISA buffer, added in 0.1 ml volumes to wells coated with optimal concentrations of antigen and the plates were incubated for 60 minutes at room temperature. After 4 washes with ELISA buffer, 100 μl of alkaline phosphatase-labelled goat anti-human IgG in ELISA buffer were added to each well and the plates were incubated at room temperature for 1 hour. Following four more washes in buffer, the enzyme reaction was performed by dissolving 1 mg per ml of Sigma alkaline phosphatase substrate in 1M diethanolamine buffer, pH 10.4, containing 1 mM MgCl2 and 0.1 mM ZnCl2, and 100 μl of the mixture was then added to each well. The reaction was allowed to proceed for 30 minutes at 37° C. and then the plates were screened directly with a microplate reader, TITERTEK MULTISKAN MC (Flow), at 420 nm. Readings above 0.1 which was 2× the background noted with antibody-negative sera were considered positive reactions.
Studies were designed to determine the serological reactivity with the p17 synthetic epitopes. For this purpose, 87 anti-EA antibody-positive sera (titer>160) were tested in the ELISA against optimal pre-determined concentrations (2 μg per well) of the p17 synthetic peptides. The sera were obtained from 28 patients with African Burkift's lymphoma (ABL) collected during the Ghanian Burkitt Tumor Project, and from 28 North American patients with intermediate large cell, or high grade non-Hodgkin's lymphoma (NANHL). The donors included both HIV-positive and HIV-negative individuals. In addition, sera from 31 North American nasopharyngeal carcinoma (NANPC) patients were examined in this study (Pearson, G. R., et al., Cancer, 51:260-268, 1983). To validate the EA specificity of the serological reactions, the results with these sera were compared with results with 23 VCA and EA antibody-negative sera and 30 VCA-antibody-positive, EA-antibody negative sera. In contrast to the T-cell proliferation results, all three synthetic peptides reacted with the EA antibody-positive sera to varying degrees with p17.1 again being the dominant epitope. Approximately 60% of the anti-EA-positive sera reacted with p17.1, 48% with p17.2 and 23% with p17.3.
Seventy-one percent of the sera from ABL patients and 93% of the sera from patients with NANHL reacted with p17.1 as opposed to 23% of the sera from North American patients with NPC.

[2] = test system: peripheral blood lymphocytes (PBL); assay: Proliferation assay of peripheral blood lymphocytes (3H-thymidine incorporation); type: cell-based, human; details: for proliferation response: PBL from 3 anti-VCA-positive anti-EA-antibody-negative individuals; for 3H-thymidine Incorporation (cpm + S.D.) / S.I. (stimulation index): PBL from anti-VCA-positive, anti-EA-positive donor, 5 days
Experimental: Proliferation assays. T-cell proliferation assays using the native p17 or p50 polypeptide or the synthetic peptides were performed as previously described in detail (Pothen et al., Int. J. Cancer, 49:656-660, 1991). Briefly, peripheral blood lymphocytes (PBLO from sero-positive donors were isolated on FICOLL-HYPAQUE gradients, washed and resuspended in RPMI 1640 media containing 10% heat-inactivated human A^+ serum from a sero-negative donor. Cells (1×10^5 per 0.1 ml) were then added to each well in 96-well, round-bottomed tissue culture plates (Costar, Cambridge, Mass.). The different antigen preparations were added to triplicate wells in 0.1 ml volumes and the plates were incubated at 37° C. for 5 days. ^3H-thymidine (5 Ci per mM) was added at a concentration of 1 μCi per well over the last 4 hours of culture. The cells were then harvested with a multichannel sample harvester and ^3H-thymidine incorporation was determined using a Beckman Model LS 3801 liquid scintillation counter. Stimulation indices for the test antigens were calculated by dividing the average counts per minute (CPMO for the test antigens by the average CPM of the medium control wells.
PBL from asymptomatic EBV-infected individuals were tested for response to any of the three p17 synthetic peptides (Table 1) by a proliferation assay using lymphocytes previously shown to proliferate in the presence of native p17 (Pothen et al., Int. J. Cancer, 49:656-660, 1991). Different concentrations of the synthetic peptides were incubated with the PBL for 5 days and then proliferation was assayed by the incorporation of ^3H-thymidine. The native p17 purified from activated P3HR-1 cells gave a S.I. of 15.8 in this experiment. […] Neither of the other synthetic peptides induced a proliferation response at the concentrations tested.
PBL from 3 anti-VCA-positive anti-EA-antibody-negative individuals were also examined in the proliferation assay with the three synthetic peptides. Again, all 3 PBL preparations responded to the highest concentrations of p17.1 with S.I.'s ranging from 3.5-11. Two of the preparations (FIG. 2A,C) also proliferated in the presence of lower concentrations of antigen with S.I.'s of 3 and 5 respectively. […] These experiments established that T-lymphocytes from EBV-infected individuals, irrespective of the presence of antibody to EA, recognized a dominant epitope on p17.

[3] = test system: EA reactive antibody (IgG) in infectious mononucleosis (IM) sera; assay: ELISA, EA peptides with EBV infectious mononucleosis sera; type: binding, human; details: EA positive EBV IM acute serum
Experimental: as §1, §2
When the entire 50.10 peptide was tested with 1M sera, 24/32 or 75% of the sera contained EA-D reactive antibody (IgG) (Table 4).
Serological reactivity of EA peptides p17.1 and p50.1 which contained additional amino acids on their amino and carboxy termini was tested on EBV IM acute sera which was EA positive. The ELISA results shown in Table 5 indicate that the additional amino acids improved reactivity for both EA peptides.
Immunofluorescence assays (IFA) were performed as described by Henle, et al. (Int. J. Cancer, 8:272-282, 1971). Western blot analysis was done by methods commonly used in the art (See for example, Coligan, et al., Current Protocols in Immunology, Wiley Interscience, 1991, Unit 12). Samples of EBV-infected cell lysates (P3HR-1) were tested with human whole antiserum from positive humans (Pearson, et al., Virology, 160:151-161, 1987). A comparison was made between EA serology by IFA, using the EA-D 50.1 peptide antisera, and ELISA serology using 50.1 peptide (see Example 2).

[4] = serum donors: Burkitt's lymphoma (African), EA titers >160
[5] = serum donors: Lymphoma (total), EA titers >160
[6] = serum donors: Nasopharyngeal carcinoma (North American), EA titers >160
[7] = serum donors: Non-Hodgkin's lymphoma (North American), EA titers >160
[8] = serum donors: Normal (VCA + EA-)
[9] = serum donors: Normal (VCA − EA-)

Sequence	share of anti-EA-positive sera that reacted [1]	No. Positive/No. Tested [1, 4]	No. Positive/No. Tested (%) [1, 4]	No. Positive/No. Tested [1, 5]	No. Positive/No. Tested (%) [1, 5]	No. Positive/No. Tested [1, 6]	No. Positive/No. Tested (%) [1, 6]	No. Positive/No. Tested [1, 7]	No. Positive/No. Tested (%) [1, 7]	No. Positive/No. Tested [1, 8]	No. Positive/No. Tested (%) [1, 8]	No. Positive/No. Tested [1, 9]	proliferation response [2]	3H-thymidine Incorporation (cpm + S.D.) ([2]; 3.12 μg/ml)	S.I. (stimulation index) ([2]; 3.12 μg/ml)	3H-thymidine Incorporation (cpm + S.D.) ([2]; 12.5 μg/ml)	S.I. (stimulation index) ([2]; 12.5 μg/ml)	3H-thymidine Incorporation (cpm + S.D.) ([2]; 50 μg/ml)	ELISA result, peptides with and without extensions ([3]; sample no. 2241)	ELISA result, peptides with and without extensions ([3]; sample no. 12498)	further results
HQQGGWSTLIEDNIP [p17.3, synthetic peptide from 17 Kd early antigen (EA-R) region of EBV]	23%	9/28	32%	16/56	29%	4/31	13%	7/28	25%	0/30	0%	0/23	None of these PBL preparations proliferated	194 ± 65 cpm	1.3	132 ± 3 cpm	0	190 ± 47 cpm			
ARQKQKHPKKVKQAFNPLI [50.1e, extension of p50.10 by the addition of several amino and carboxy-terminal amino acids]																			>2	0.946	ELISA result, peptides with and without extensions ([3]; sample no. 12836): 1.718
GMLEASEGLDGWIHQ [p17.2, synthetic peptide from 17 Kd early antigen (EA-R) region of EBV]	48%	13/28	46%	36/56	64%	6/31	19%	23/28	82%	0/30	0%	0/23	None of these PBL preparations proliferated	157 ± 23 cpm	1.1	278 ± 58 cpm	1.9	277 ± 175 cpm			
QNSETFTETWNRFITHTEHVD [17.1e, extension of p17.1 by the addition of several amino and carboxy-terminal amino acids]																			1.277	0.502	ELISA result, peptides with and without extensions ([3]; sample no. 12836): 1.257
